≈ marks a conversion by molar mass, not a printed value. Like-named read-outs stand apart in the source and are kept apart here.
Columns and labels:
[1] = system: Myzus persicae (URR-O type), sensitive strains; experiment: Foliar spray test on larvae of Myzus persicae, sensitive strain; format: in vivo; conditions: for LC50: read-out: LC₅₀ (ppm) Sensitive Strain
Description: (§1) A solution of the compound is diluted with distilled water containing Tween 20® at a concentration of 100 ppm to prepare a predetermined concentration of the test solution. Malathion emulsion and pirimicarb wettable powder are diluted with distilled water to prepare a predetermined concentration of the test solution, respectively.
(§2) Myzus persicae (URR-O type) distributed from Chiba University, which were reared for succesive generations, were used as a group of sensitive strains. Myzus persicae resistant to malathion and pirimicarb which were collected from Aburahi Laboratory of Shionogi & Co., Ltd. and reared for succesive generations while selecting those resistant to these drugs were used as a group of resistant strains.
(§3) A polyethylene cup (diameter 6 cm, depth 4 cm) was filled with 0.3 % agar gel and a piece of Chinese cabbage leaf (3x3 cm) was placed on the gel. One apterous adult of Myzus persicae was put on the leaf and allowed to keep at 25 °C for 24 hours to make larviposition. After removal of the adult, 2 ml of the test solution was applied to the foliage under a rotary sprayer; and larvae of Myzus persicae was allowed to keep at 25 °C for 48 hours. Then the mortality of the larvae was determined and the value of LC₅₀ was calculated by the method of Billis. [Bliis, Ann. Appl. Biol.,22, 134;307 (1935)].

[2] = system: Myzus persicae resistant to malathion and pirimicarb; experiment: Foliar spray test on larvae of Myzus persicae, strain resistant to malathion and pirimicarb; format: in vivo; conditions: for LC50: read-out: LC₅₀ (ppm) Resistant Strain
Description: as §1, §2, §3

[3] = 7.8 ppm, larvae, 25 °C, 48 hours after spraying
[4] = 15.6 ppm, larvae, 25 °C, 48 hours after spraying
[5] = 31.3 ppm, larvae, 25 °C, 48 hours after spraying
[6] = 62.5 ppm, larvae, 25 °C, 48 hours after spraying
[7] = 125 ppm, larvae, 25 °C, 48 hours after spraying
[8] = 250 ppm, larvae, 25 °C, 48 hours after spraying
[9] = larvae, 48 hours, ( ) means 95 % confidence limit

Compound: N[C@@H](CCSC(F)F)C(=O)O [Compound I ^a, L-difluoromethylhomocysteine]
- mortality at 7.8 ppm [1, 3]: 0%
- mortality at 15.6 ppm [1, 4]: 8.7%
- mortality at 31.3 ppm [1, 5]: 4.8%
- mortality at 62.5 ppm [1, 6]: 57.1%
- mortality at 125 ppm [1, 7]: 100%
- mortality at 250 ppm [1, 8]: 100%
- LC50 [1, 9]: 52.9 µg/mL (≈ 286 µM)
- mortality at 7.8 ppm [2, 3]: 5%
- mortality at 15.6 ppm [2, 4]: 0%
- mortality at 31.3 ppm [2, 5]: 54.2%
- mortality at 62.5 ppm [2, 6]: 100%
- mortality at 125 ppm [2, 7]: 100%
- mortality at 250 ppm [2, 8]: 100%
- LC50 [2, 9]: 27.1 µg/mL (≈ 146 µM)

Compound: CCOC(=O)CC(SP(=S)(OC)OC)C(=O)OCC (stereo not drawn) [malathion, reference compound]
- LC50 ([1]; 48 h): 136 µg/mL (≈ 412 µM)
- LC50 ([2]; 48 h): > 2000 µg/mL

Compound: Cc1nc(N(C)C)nc(OC(=O)N(C)C)c1C [pirimicarb, reference compound]
- LC50 ([1]; 48 h): 8.2 µg/mL (≈ 34.4 µM)
- LC50 ([2]; 48 h): > 1920 µg/mL

From patent EP0367033A1, “S-Difluoromethylhomocysteines, preparation process, and insecticidal compositions” (SHIONOGI SEIYAKU KABUSHIKI KAISHA, priority 1988, dated 1990)
